This note sets out measurements from patent publication US20180356397A1, “MIMICRY OF NEUROINFLAMMATORY MICROENVIRONMENTS AND METHODS OF USE AND MANUFACTURING THEREOF” (priority 2017, published 2018).

Bounds are passed on as bounds.

Test [1] has as its system neutrophils co-cultured with A-beta activated microglia. In words: neutrophil recruitment toward soluble A-beta activated microglia (co-culture in microfluidic device). In kind it is cell-based, human. The note with it: for recruiting of neutrophils in the recapitulated AD environment: microglia-derived chemokines by A-beta stimulation; for higher neutrophil migration in central chamber: soluble A-beta 2.2 uM, 6 hours. From the text: Microglial cells are resident brain immune cells and stimulated by soluble A-beta42, which is a signature of human AD neurotoxic peptide. Based on our previous observation of neutrophil accumulation on A-beta plaques in in vivo, we hypothesize that A-beta activated microglial cells has a critical role in recruiting neutrophil. Stimulated microglial cells can release various types of chemokines and/or cytokines to increase inflammatory behavior or to clear A-beta in inflamed region. Furthermore, those secreted chemokines and/or cytokines can recruit other cell types including peripheral immune cells (FIG. 9A). To modulate this whole process, we established an in vitro AD brain-blood model (ADBBM) using microglia and neutrophil to mimic the brain microenvironment. To accommodate the different cells separately in a single microfluidic platform, we employed mechanically separated two chambers, which are connected through neutrophil specific migration channels (10×5×500 μm in width, height, and length) forming gradients of chemokines and/or cytokines (FIG. 9B).
Compared to a parallel configuration having equal surface areas for cell loading and cell collection, the asymmetric configuration of the current microfluidic device 10 has a small central cell collecting compartment (central chamber 30), which is smaller than a large annular cell loading compartment (annular chamber 50) by a factor of 3, 4, 5, 6, 7, 8, 9, 10 or greater. […] This enhances the gradient formation and detection of recruitment. The long and thin migration channels 60 can block spontaneous entrance of inactivated neutrophil through mechanical constraints. Using this platform, we could culture microglial cells for extended periods to accumulate enough soluble factors and could observe neutrophil signature movement at single cell resolution, in real-time. Red membrane dye stained microglial cells plated first in central chamber 30 and incubated for 3 days with soluble A-beta to modulate chemokine/cytokine enriched AD microenvironment. Freshly isolated neutrophil labeled with green membrane dye plated on annular chamber 50 and incubated under microscope to observe their movement and accumulation in central chamber 30. Precise numbers of neutrophils are reproducibly loaded and uniformly distributed in annular chamber 50 and this design allows us to evaluate the response of neutrophil to various types of chemokines and/or cytokines. We tested 200 independent conditions at the same time, by using real time imaging of process in an array of twenty-five formatted on a single well plate 140 or an array of one-hundred nineteen formatted single well plate 140 (FIG. 7 and FIG. 8).
To validate the dependency of neutrophil migration toward soluble A-beta activated microglia, microglial cells plated on central chamber 30 with various cell numbers (5,000, 10,000, 20,000 cells). Microglial cells are pre-labeled with membrane dye according to manufacturer's protocol to observe their morphology change. After 24 hour incubation of microglia alone, prepared soluble A-beta (2.2 uM) with reduced 1% FBS Prigrowlll media were changed to incubate further for 48 hours. After 48 hours, freshly isolated neutrophil labeled with green membrane dye plated on annular chamber 50 and incubated on microscopic real time imaging chamber. Neutrophil (green) migration could be observed toward soluble A-beta activated microglia (red) cultured central chamber 30 after 6 hours (FIG. 11A). 2.4-, 1.2-times higher neutrophil migration could be observed in central chamber 30 in response to 10,000 and 20,000 cultured microglia in central chamber 30 by showing the dependency of neutrophil recruitment in cell numbers. […] By utilizing high-resolution and spatiotemporal controlled microscopic imaging method, we also can quantify the persistent movement of microglial cells in various stimulations. […]

The test system of another test is human neutrophils. In words: microfluidic chemotactic model for neutrophil migration (platform validation with fMLP). The format is cell-based. The note with it: for neutrophils migrated back from chemoattractant / neutrophils migrated towards chemoattractant: persistence at 1 hour. As for the experimental part: FIG. 10F. Neutrophil recruitment was quantified by comparing the fraction of cells inside the central chamber (CC) to the total number of cells in the corresponding angular chamber device (AC). The R.I. is calculated as R.I.=(CCDay i−CCDay 0)/ACDay i, where Day i is the number of cells in the central chamber and ADDay i is the number of cells in angular chamber. The recruitment index, R.I., is obtained by normalizing with the subtraction at ‘CCDay 0’ cell numbers.
We validated the assay by measuring the migration and accumulation of neutrophils toward a panel of known chemoattractant. To compare the effect of fMLP in various concentrations on neutrophil recruitment, we defined a neutrophil recruitment index, R.I. (FIG. 10B, FIG. 10F), representing the fraction of neutrophil recruited to the central chamber after loading fMLP in the central chamber. We compared the R.I. values under various soluble factors, (fMLP, A-beta, and media) (FIG. 10B) and could observe predominant neutrophil (green) recruitment with N-formyl-methionine-leucine-phenylalanine (fMLP) (10 nM) in central chamber 30 after 6 hours (FIG. 10A). A negligible number of cells entered central chamber in the absence of a chemoattractant by proving that the mechanical barrier 40 can exclude the spontaneous entrance of neutrophil. […] Neutrophils move through migration channels 60 at 18±5 μm/min and could reach central chamber in less than 30 min (FIG. 10G). We compared the migratory response of human neutrophils with various stimulators. […] Concentration-dependent changes in migration patterns in response to fMLP was primarily affect the migrating faction while there was no significant effect on persistent directionality.
(§1) Immortalized microglial cells (SV40-microglia) were purchased from Abm company (ABM Inc., Montreal, Canada). The cells were plated onto T25 cell culture flasks (BD Biosciences, San Jose, Calif., USA) and maintained in Prigrow III Medium (ABM Inc) supplemented with 50 mL FBS (Life Technologies) and 5 mL Pen/Strep (Invitrogen) in a CO2 cell culture incubator. Cell culture media were changed every 3 days until cells were confluent. For neutrophil isolation, human peripheral blood samples from healthy volunteers, aged 18 years and older, were purchased from InvivoGen. Peripheral blood was drawn in 10-ml tube containing a final concentration of 5 mM EDTA (Vacutainer; Becton Dickinson). Nucleated cells were isolated using a HetaSep gradient, followed by the EasySep Human Neutrophil Enrichment Kit (STEMCELL Technologies, Vancouver, Canada) according to the manufacturer's protocol.
After microglia loading, cells were recorded using time-lapse imaging using a fully automated Nikon TiE microscope with a heated incubator to 37° C. and 5% CO2 (10× magnification; Micro Device Instruments, Avon, Mass., USA). To achieve accurate cell tracking, the maximum time resolution of acquisition was 0.2 frames per second.
FIG. 10. Design and validation of a microfluidic chemotactic model for neutrophil migration. (10A) Neutrophils (green) instantly migrated along microchannels designed for neutrophils with a gradient of fMLP (10 nM) and accumulated in a central chamber, the source of fMLP. (10C) Time-lapse images show a simultaneous bi-directional migration of neurophils under the fMLP gradient on a single cellular level. The red arrows indicate persistent forward migration of neutrophils along the gradient of the chemoattractant and green arrows indicate the backward migration against the gradient. […] Combined data from n=5 independent experiments. Scale bars: (10A) 500 μm, (10C) 50 μm. Data represented as mean±SEM.

Another test concerns microglia. The test is described as follows: A-beta stimulation of microglia and analysis of cytokine release / activation markers. The format is cell-based, human.
Excerpt: To characterize the phenotype changes in microglia induced by soluble A-beta, individual microglial cells were monitored for three days using time-lapse imaging microscopy. […] Morphological changes could be observed at 48 hrs following cell seeding (FIG. 9C bottom, +A-beta). As determined by image analysis, microglial cells became large and switched into more amoeboid type as the length and area of microglial somata (cell bodies) increased in all direction (FIG. 9C). And filopodia, which is observed in resting mode microglia, could not be observed in A-beta stimulated microglia. Furthermore, exposure of microglia to soluble A-beta induced up-regulation of microglial activation markers such as CD11b (FIGS. 9D and 9E) and CD68 (FIG. 9F). […] Membrane stained microglial cells (red) immunostained with anti-CD68 to observe activation of microglial cells with A-beta.
As microglia are the predominant resident immune cells of the brain, we next determined the effects of the soluble A-beta AD microenvironment on the inflammatory activity of microglia. Exposure to soluble A-beta was associated with significant increases in chemokine release (FIG. 9B).
as §1
For immunofluorescent stain, we rinsed the cells in medium twice with DPBS. To fix, cells were incubated in fresh 4% paraformaldehyde aqueous solution (157-4, ElectronMicroscopy Sciences) for more than 15 minutes at RT followed by rinsing twice with DPBS. To permeabilize, cells were incubated in 0.1% Triton X-100 in PBST (phosphate buffered saline with 0.1% tween®20) for 15 minutes at RT. To block, cells were incubated in 3% human serum albumin for overnight in PBST at 4° C. After incubating with the primary antibody solutions for 24 hour at 4° C., the cells were washed five times. The following antibody (and dilutions) were used: anti-cd11b (1:100, Life Technologies).
Microfluidic devices 10 were cultured for 72 hours, followed by incubation in A-beta containing medium with fetal bovine serum reduced from 10% to 1%. Microglia culture on central chamber 30 were stimulated with A-beta (Sigma Aldrich) at 2.2 uM with […] serum for 72 hrs. The cytokine release profile was assayed with the Human Cytokine 37-membrane kit array (R&D systems) and the resulting cytokine release profiles were quantified with ImageJ analysis.
FIG. 9. Activation of microglial inflammation with A-beta: chemokine release, morphogenesis, and marker expression. […] Both the membrane area (9D) and the amounts of expressed CD11b (9E) increase in the activated microglia with A-beta. ndevice=3, ncell=150. Scale bars: 30 μm. All parameters are presented as mean±SEM.

The subject of another test is human primary microglial. In words: microfluidic chemotaxis platform for microglial motility under soluble A-beta gradient. The note with it: soluble monomeric and oligomeric A-beta, picomolar to nanomolar concentrations. The format is cell-based. From the text:
Activated microglia initially take on various morphologies: rounded, ramified shapes, rods to amoeboid forms followed by motile activation, which complicates the visual tracking of individual cells. Previous in vitro attempts to study rat microglial migration in the presence of short-lived damaged axons could not establish long-lasting gradients and could not conclusively differentiate slow accumulation of microglia from heterogeneous activation and random navigation. We developed a novel, microfluidic chemotaxis platform to study the motility of those microglia selectively responding to stimuli in a regulated manner. To understand the specific roles of A-beta in microglial accumulation in the context of AD, we generated a week-long lasting soluble A-beta gradient, patterned insoluble surface-bound A-beta to mimic A-beta signature in AD brains, and isolated human primary microglial responding to A-beta in our platforms. We tested 200 independent conditions in a single batch, while using real time imaging of process in an array of twenty-five formatted single well plate. […] We also observed discernable co-localization of microglia to the sites of insoluble A-beta, representing A-beta plaques.

Setting [2] is: microglia exposed to soluble A-beta compared to microglia without A-beta.

On to “CCL2: microglia-derived chemokine released on A-beta stimulation”, for which the “recruiting of neutrophils in the recapitulated AD environment” value (“recruiting of neutrophils” for short) in test [1] is “effective for recruiting neutrophils”.

Take “IL8: microglia-derived chemokine released on A-beta stimulation”: the “recruiting of neutrophils” value in test [1] was “effective for recruiting neutrophils”.

Take “N-formyl-methionine-leucine-phenylalanine [fMLP]”: in the test on human neutrophils (1 nM fMLP), the “neutrophils migrated back from chemoattractant” value was determined as 17.8±2.8% and the “neutrophils migrated towards chemoattractant” value is on record as 82.2±3.4%. In addition, in the test with human neutrophils (10 nM fMLP compared to 1 nM fMLP, central chamber, 6 hours), the “magnitude of cell recruitment (recruitment index), 10 nM compared to 1 nM” value was found to be 1.6 times. In the test with human neutrophils (10 nM fMLP), the “neutrophils migrated back from chemoattractant” value amounted to 11.5±1.7% and the “neutrophils migrated towards chemoattractant” value is 88.5±3.8%. The “time to plateau of neutrophil response” value with human neutrophils (fMLP in central chamber) is no more than 6 h. The “decrease in the total fraction of migrating cells” value with human neutrophils (increasing fMLP from 10 nM to 1 μM) is reported as 63%. Moreover, in the test on human neutrophils (migrating towards fMLP), the “speed of neutrophils moving through migration channels” value is recorded as 18±5 μm/min and the “time to reach central chamber” value is listed as “less than 30 min”.

Consider amyloid-beta [A-beta], for which, in the test with microglia (exposure of microglia to soluble A-beta, immunostaining), the “microglial activation markers CD11b and CD68” value is reported as “up-regulation”. In the test with microglia (microglia exposed to soluble A-beta), the “secretion of anti-inflammatory markers (IL-1RA, IL-4, IL-10, TGF-β)” value is “very low or no detectable”. In the test on microglia (setting [2]), the CCL2 concentration increase was determined as 1.4 fold; the IL-6 concentration increase was 1.9 fold; the IL-8 concentration increase was 2.3 fold; the “chemokine release of CCL3/4, CCL5” value is on record as “new chemokine release”. For the same molecule, the “higher neutrophil migration in central chamber” value in test [1] (10,000 microglia in central chamber) was 2.4 times. Besides, the “higher neutrophil migration in central chamber” value in test [1] (20,000 microglia in central chamber) was 1.2 times. In test [1] (A-beta alone, no microglia), the neutrophil migration result is “Negligible neutrophil migration”. The “persistence of neutrophil migration” value in test [1] (co-culture with soluble A-beta activated microglial cells) is listed as “about 92%”. Besides, the microglial chemoattraction result in the test on human primary microglial is “acting as a microglial chemoattractant”.

B1: CCL5: microglia-derived chemokine released on A-beta stimulation (protein, UniProt P13501 24-91, looked up)
C-C motif chemokine 5: SPYSSDTTPCCFAYIARPLPRAHIKEYFYTSGKCSNPAVVFVTRKNRQVCANPEKKWVREYINSLEMS
With B1, the “recruiting of neutrophils” value in test [1] is “effective for recruiting neutrophils”.
